System: ⍺4β7
Test: SPR: inhibition by linear peptides of soluble ⍺4β7 binding to a MAdCAM-Ig surface
Conditions: Fig 7F, 7G
Source text: To determine if this is the case, we employed an SPR -based assay. Biosensor surfaces were coated with either CD4 D1D2 or a 42 aa cyclic V2 peptide derived from the subtype E 92TH023 gp120 (cV2 92TH023). A third surface coated with MAdCAM-Ig was employed as a positive control. Soluble ⍺4β7 was passed over these surfaces. We then evaluated the capacity of staggered 15 aa peptides that span either CD4 D2 or gp120 V2 to inhibit this interaction (Fig 7A).
Fig 7 Reciprocal inhibition of gp120 V2 and CD4 binding to ⍺4β7 by D2 and V2 peptides. SPR measurements of soluble ⍺4β7 (analyte) binding to biosensor surfaces coated with CD4 D1D2, 92TH023 cyclic peptide, or MAdCAM-Ig in the absence or presence of either CD4 D2 or gp120 V2 peptides, as indicated. (A) List of overlapping 15 aa peptides corresponding to residues 157–187 of CD4 and residues 158–192 of gp120 V2 (subtype B consensus sequence). (B) Binding of ⍺4β7 to sCD4 D1D2 +/- CD4 D2 peptides. X-axis indicates ⍺4β7 mass bound (RU) at the end of the association phase. (C) Binding of ⍺4β7 to 92TH023 +/- gp120 V2 peptides. (D) Binding of ⍺4β7 to sCD4 D1D2 +/- gp120 V2 peptides. (E) Binding of ⍺4β7 to 92TH023 +/- CD4 D2 peptides. […]
Experiments were performed using a Biacore 3000 instrument (Cytiva Life Sciences) using CM4 or CM5 sensor chips. The data were evaluated using BIAevaluation 4.1.1 software (Cytiva Life Sciences). […]

QKKVEFKIDIVVLA [CD4 P42, linear CD4 D2 peptide, residues 165-178, G β-strand]
inhibition of MAdCAM-Ig binding to ⍺4β7 (in words): inhibit MAdCAM-Ig binding to ⍺4β7
